Residues, ends and D or L forms follow the SMILES beside them.
Experiments:
[1] = tested on: FDCP-1/muER cells; experiment: Peptide-induced initiation of cell cycle measured by DNA content; assay type: cell-based, murine; conditions: 10 U/ml EPO, ten hours postinduction
Method: 1. Experimental Protocol: FDCP-1/muER cells were grown to stationery phase≈3.0×10^6 cells/ml. […] Three million cells were collected at the following time points: 0, 6, 8, 10, and 12 hr. (see, FIG. 15). Cells were washed twice in cold PBS and fixed by resuspending the cell pellet in 100 μl of cold PBS followed by 900 μl of cold 70% ethanol. Cells were stained with 50 μg/ml of propidium iodine and fluorescence was measured on FACS Scan Flow cytometer. The percentage of cells in each phase was measured using the SOBR model of CellFIT software, by Becton Dickinson.

[2] = tested on: human peripheral blood mononuclear cells; experiment: Colony assay, human peripheral blood; assay type: cell-based
Method: (§1) A ten milliliter sample of peripheral blood was obtained from a healthy individual in a standard sterile heparin vacutainer tube. Murine bone marrow was obtained from the femurs of approximately 10 mice per experiment. All reagents were obtained from Stem Cell Technologies Inc. (Vancouver, Canada).
(§2) a. Experimental Protocol: Briefly, a nucleated cell count was performed to establish the number and concentration of nucleated cells in the original sample. In the case of peripheral blood, the sample is subjected to centrifugation through a Ficoll-Hypaque (1.077 g per ml) gradient at 400 g for 30 minutes at room temperature. Mononuclear cells at the interface of the Ficoll-Hypaque solution are carefully removed and diluted to a total volume of about 10 ml. The cells obtained from murine bone marrow or human peripheral blood were collected by centrifugation and the supernatant was decanted. The pelleted cells were resuspended in fresh medium and subjected to collection as described above. The washed cells were diluted in Iscove's medium/2% fetal bovine serum to the following concentration for plating:
Cells were added to methyl cellulose per directions of the manufacturer. […] Equivalent cell numbers were plated in "Complete" methylcellulose medium to assess maximal colony formation. A control plate was run with each assay minus EPO and peptide to determine background colony formation. […]

[3] = tested on: murine bone marrow cells; experiment: Colony assay, murine bone marrow; assay type: cell-based; conditions: EPO
Method: as §1, §2
Cells were added to methyl cellulose per directions of the manufacturer. […] Equivalent cell numbers were plated in "Complete" methylcellulose medium to assess maximal colony formation. A control plate was run with each assay minus EPO and peptide to determine background colony formation. Colonies were scored after both 10 days and 18 days of incubation.

[4] = target: T1, murine receptor (FDC-P1/ER cells) (Mus musculus, UniProt P14753); experiment: Peptide dependent growth of the EPO-responsive cell line FDC-P1/ER (thymidine incorporation); assay type: cell-based
T1 construct: expressed in transfected cells; host or cells: FDC-P1 (murine bone marrow derived cell line)
T1 sequence (P14753 25-507): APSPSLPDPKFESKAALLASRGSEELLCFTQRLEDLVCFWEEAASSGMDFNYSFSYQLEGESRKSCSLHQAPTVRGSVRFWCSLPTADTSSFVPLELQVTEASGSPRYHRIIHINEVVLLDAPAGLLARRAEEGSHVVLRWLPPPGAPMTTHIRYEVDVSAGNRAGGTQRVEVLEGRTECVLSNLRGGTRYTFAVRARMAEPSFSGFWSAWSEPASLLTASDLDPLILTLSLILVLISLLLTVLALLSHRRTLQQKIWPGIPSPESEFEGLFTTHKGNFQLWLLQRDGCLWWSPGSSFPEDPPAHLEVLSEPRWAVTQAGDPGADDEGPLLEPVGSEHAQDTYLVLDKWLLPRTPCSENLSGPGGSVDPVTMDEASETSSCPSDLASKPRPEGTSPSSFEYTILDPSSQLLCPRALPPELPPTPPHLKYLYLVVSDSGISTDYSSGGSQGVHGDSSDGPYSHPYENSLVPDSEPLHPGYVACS
Method: Sample Preparation: Peptides were resuspended in DMSO as a 1×10^-2 M stock solution and serially diluted in 10-fold increments to generate the following 100× solutions: [formula]
Two μl of each stock dilution was added to a cell well as described below in a total volume of 200 μl to generate final concentrations as follows: [formula]
Cells are counted and resuspended at a concentration of 800,000 cells/ml. Approximately forty thousand cells (50μ) are added to each well of a 96 well microtiter plate. Peptide is added to each well in triplicate. A standard dose response determination is run with each series of peptides. After a forty-two hr incubation (≈2 doubling), each well is pulsed with 1 μCi/well Thymidine. Cells are incubated an additional six hr at which time cells are harvested and counted to assess thymidine incorporation as an indicator of cell proliferation.

[5] = set up 2/10/94, scored 2/23/94, EPO 3U/ml
[6] = set up 2/10/94, scored 2/23/94, EPO (METHOCULT)
[7] = set up 2/10/94, scored 3/4/94, EPO 3U/ml
[8] = set up 2/10/94, scored 3/4/94, EPO (METHOCULT)
[9] = Table 14, 1/28/94 experiment, scored 2/10/94
[10] = Table 14, 1/28/94 experiment, scored 2/21/94
[11] = Table 15, 2/21/94 experiment, scored 3/1/94
[12] = Table 15, 2/21/94 experiment, scored 3/14/94

“EPO: Erythropoietin, a glycoprotein hormone with 165 amino acids; recombinant standard” was tested, and the “cells in S phase” value [1] was “approximately 45%”, the CFU-E [2, 5] was 7 and the MBFU-E [2, 5] was 7. It also gave a CFU-E [2, 6] of 11, an MBFU-E [2, 6] of 25 and a CFU-E [2, 7] of 4. It also gave a CFU-GM [2, 7] of 3, an MBFU-E [2, 7] of 7 and a PBFU-E [2, 7] of 7. For the same compound, the CFU-E [2, 8] was 1, the CFU-GM [2, 8] was 9 and the MBFU-E [2, 8] was 11. The PBFU-E [2, 8] was 13, the “BFU-E colony-forming cell numbers” value [3, 9] was 5 and the “CFU-E colony-forming cell numbers” value [3, 9] was 23. The “CFU-GM colony-forming cell numbers” value [3, 9] was 3, the “BFU-E colony-forming cell numbers” value [3, 10] was 30 and the “CFU-E colony-forming cell numbers” value [3, 10] was 0. For the same compound, the “CFU-GM colony-forming cell numbers” value [3, 10] was 3, the “BFU-E colony-forming cell numbers” value [3, 11] was 3 and the “CFU-E colony-forming cell numbers” value [3, 11] was 3. The “CFU-GM colony-forming cell numbers” value [3, 11] was over 10, the “CFU-E colony-forming cell numbers” value [3, 12] was 0 and the “CFU-GM colony-forming cell numbers” value [3, 12] was 26. The “MBFU-E colony-forming cell numbers” value [3, 12] was 0 and the “PBFU-E colony-forming cell numbers” value [3, 12] was 10.

For `CC(C)C[C@@H]1NC(=O)[C@@H]2CCCN2C(=O)CNC(=O)[C@H](Cc2ccccc2)NC(=O)[C@H](Cc2c[nH]cn2)NC(=O)[C@@H](NC(=O)[C@H](CO)NC(=O)[C@@H](N)Cc2ccc(O)cc2)CSSC[C@@H](C(N)=O)NC(=O)[C@H](C(C)C)NC(=O)[C@H](Cc2c[nH]c3ccccc23)NC(=O)[C@H]([C@@H](C)O)NC1=O` [RWJ 61477] (HELM PEPTIDE1{Y.S.C.H.F.G.P.L.T.W.V.C.[am]}$PEPTIDE1,PEPTIDE1,3:R3-12:R3$$$V2.0), the EC50 [4] was 1000 nM.
